Measurements published in patent US20050208549A1, “Testing endosymbiont cellular organelles and compounds identifiable therewith” (priority 2000, published 2005).

Experiments:
[1] = test system: peripheral blood mononuclear cells (PBMCs); test: NASBA ratio of mitochondrial RNA to chromosome-encoded RNA in cultured PBMCs; assay type: cell-based, human (healthy blood donor)
Experimental: In Table 1, the primers and probes used in the examples are summarized. Standard NASBA nucleic acid amplification reactions were performed in a 20 μl reaction volume and contained: 40 mM Tris-pH 8.5, 70 mM KCl, 12 mM MgCl2, 5 mM dithiothreitol, 1 mM dNTPs (each), 2 mM rNTPs (each), 0.2 μM primer (each), 0.05 μM molecular beacon, 375 mM sorbitol, 0.105 μg/μl bovine serum albumin, 6.4 units AMV RT, 32 units T7 RNA polymerase, 0.08 units RNAse H and input nucleic acid. The complete mixture, except the enzymes, sorbitol and/or bovine serum albumin was, prior to adding the enzyme mixture, heated to 65° C. for two minutes in order to denature any secondary structure in the RNA and to allow the primers to anneal. After cooling the mixture to 41° C., the enzymes were added. The amplification took place at 41° C. for 90 minutes in a fluorimeter (CytoFluor 2000) and the fluorescent signal was measured every minute (using the filter set 530/25 nm and 485/30 nm). For amplification of DNA target sequences, the 65° C. denaturation step was replaced with a 95° C. denaturation step for two to five minutes.
To achieve quantification, a dilution series of target sequences for a particular primer set was amplified and the time points at which the reactions became positive (the time to positivity, TTP) were plotted against the input amounts of nucleic acid. This way a calibration curve was created that could be used to read TTP values of reactions with unknown amounts of input and deduce the input amount.
Cells (fibroblasts and PBMCs) were cultured under standard conditions in standard media known to persons skilled in the art with the addition of drugs or putative toxic or stimulating compounds as defined in the examples. […] A small aliquot of the isolated nucleic acid was analyzed on an agarose gel and the remainder stored at −80° C. until further analysis. […]

PBMC of patients = test: Mitochondrial DNA content per PBMC of HIV-1 infected patients on antiviral therapy (duplex NASBA); assay type: in vivo, human (HIV-1 infected patients); settings: for Mitochondrial DNA content in PBMC (per cell), Median / % decrease in mitochondrial DNA content of PBMC: patients
Experimental: Different ratios of mitochondrial and chromosomal DNA targets in plasmids were analyzed in this example: 2×10^3 U1a DNA/8×10^3 Mt DNA, 2×10^3 U1a DNA/2×10^4 MtDNA, 2×10^3 U1a DNA/4×10^4 Mt DNA, 2×10^3 U1a DNA/10^5 Mt DNA, 2×10^3 U1a DNA/2×10^5 Mt DNA, 2×10^3 U1a DNA/4×10^5 Mt DNA, and 2×10^3 U1a DNA/8×10^5 Mt DNA molecules were included. A reaction mix was prepared similar to that of Example 12, except that primers and beacons differed in order to amplify chromosomal and mitochondrial DNA in one tube. The reaction mix (duplex-mix) contained two sets of primers and beacons: SnrpD P1 and SnrpD2 P2 (first primer set, each 0.2 μM), and MtD P1—2 and MtD P2—2 (second primer set, each 0.3 μM) with beacons SnrpD mb—2 (FAM-labeled) and MtD mb—3 (ROX-labeled) (each 0.04 μM). See Table 1 for primer and, probe sequences. Restriction enzyme digestion, amplification, and detection were performed as in Example 12. Filter sets of the fluorimeter (CytoFluor 2000 or EasyQ analyzer) were adapted to simultaneously measure the FAM and the ROX-label (485/20 and 530/25 for FAM; 590/20 and 645/40 for ROX). In a duplex reaction with two competing amplifications, the ratio of the slope of the curves of fluorescence in time is proportional to the ratio of the amount of molecules of each amplified species. The relation between the ratio of the slopes of FAM and ROX signal is linear to the ratio of mitochondrial DNA and chromosomal DNA in the input.
Forty-eight HIV-1 infected patients were randomized for antiviral therapy with either AZT, AZT+ddI, or AZT+ddC. Blood was drawn at week 0, 4, 24, and 48 after the start of therapy. The blood was used to prepare peripheral blood mononuclear cells (PBMC) by Ficoll-Isopaque purification. PBMC were viably frozen in medium plus 5% DMSO and stored in liquid nitrogen until use.
Nucleic acids were extracted from 10^5 PBMC using the Boom method. Nucleic acids equivalent of 1,000 PBMC were used as input for the one-tube real-time duplex-NASBA that measures both mitochondrial and chromosomal DNA as described in Example 17. The result of this assay is expressed as the mitochondrial DNA content per cell (i.e., PBMC) of the patient sample.
The mtDNA content of the PBMC of the patients at start of therapy was compared to the mtDNA content at week 4, 24, and 48 and analyzed for statistically significant changes (see Table 3 and FIGS. 20 and 21).

Fibroblasts = test: Lactate-pyruvate ratio in fibroblasts cultured with ddC; assay type: cell-based
Experimental: Fibroblasts were cultured in the presence of the anti-retroviral drug ddC. (30 μM) for four weeks. After that period, the cell culture continued in the presence, but also in the absence, of ddC for another six weeks. During this period of culture, part of the cells were harvested and analyzed for the ratio of lactate-pyruvate using standard methods known by persons skilled in the art.

Compound	change in ratio of mitochondrial RNA to chromosome-encoded RNA ([1]; culture period of five days, 6 μM and 60 μM)	Mitochondrial DNA content in PBMC (per cell), Median (PBMC of patients; week 0 (start of therapy))	% decrease in mitochondrial DNA content of PBMC (PBMC of patients; week 4 compared to start of therapy) [%]	Mitochondrial DNA content in PBMC (per cell), Median (PBMC of patients; week 4 of therapy)	% decrease in mitochondrial DNA content of PBMC (PBMC of patients; week 24 compared to start of therapy) [%]	Mitochondrial DNA content in PBMC (per cell), Median (PBMC of patients; week 24 of therapy)	% decrease in mitochondrial DNA content of PBMC (PBMC of patients; week 48 compared to start of therapy) [%]	Mitochondrial DNA content in PBMC (per cell), Median (PBMC of patients; week 48 of therapy)	culture time after which a significant increase of lactate pyruvate ratio can be observed (Fibroblasts; ddC 30 μM)	lactate-pyruvate ratio in continued culture in the absence of ddC (Fibroblasts; ddC 30 μM for four weeks, then without ddC)	lactate pyruvate ratio in the presence of ddC (Fibroblasts; ddC 30 μM, FIG. 17)	lactate-pyruvate ratio during continued culture in the presence of ddC (Fibroblasts; ddC 30 μM, after week four, another six weeks)	decline in PBMCs of mitochondrial RNA per cell ([1]; five-day culture period, highest concentration of ddC used, FIG. 10)	change in the mitochondrial DNA content of patients' PBMC under therapy (PBMC of patients; human, in vivo)
Cc1cn([C@H]2C[C@H](N=[N+]=[N-])[C@@H](CO)O2)c(=O)[nH]c1=O [AZT]	no measurable change	196	11	157	1	182	5	155	–	–	–	–	–	–
Nc1ccn([C@H]2CC[C@@H](CO)O2)c(=O)n1 [ddC]	–	–	–	–	–	–	–	–	four	drops to normal levels	increases	remains high	do not clearly show a decline	significant decline
